Patent US11077100B2, “Tetrahydroquinoline derivatives as P2X7 receptor antagonists” (RaQualia Pharma Inc., priority 2017, dated 2021)

How the values were obtained:
[1] = biological target: human P2X7 (Homo sapiens (Human), UniProt Q99572); experiment: Human P2X7 functional assay (Ca2+ influx, Fluo-4, FDSS); type: cell-based; details: antagonistic activity with respect to the human P2X7 receptor; BzATP final concentration 80 microM
How it was run: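 HEK293 cells stably expressing C-terminally FLAG-tagged human P2X7, loaded with Fluo-4. Compounds were preincubated for 10 min at room temperature, then 80 μM BzATP (final) was added and Ca2+ fluorescence read at 540 nm (480 nm excitation) by FDSS. IC50 values come from 7-point curves, duplicate wells.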

[2] = biological target: rat P2X7 (Rattus norvegicus (Rat), UniProt Q64663); experiment: Rat P2X7 functional assay (Ca2+ influx, Fluo-4, FDSS); type: cell-based; details: HEK293 cells stably expressing rat P2X7; BzATP final 10 microM; 7-point dose-response; read-out: Antagonistic activities with respect to the rat P2X7 receptor (IC50)
Sequence of rat P2X7 (Q64663 whole entry): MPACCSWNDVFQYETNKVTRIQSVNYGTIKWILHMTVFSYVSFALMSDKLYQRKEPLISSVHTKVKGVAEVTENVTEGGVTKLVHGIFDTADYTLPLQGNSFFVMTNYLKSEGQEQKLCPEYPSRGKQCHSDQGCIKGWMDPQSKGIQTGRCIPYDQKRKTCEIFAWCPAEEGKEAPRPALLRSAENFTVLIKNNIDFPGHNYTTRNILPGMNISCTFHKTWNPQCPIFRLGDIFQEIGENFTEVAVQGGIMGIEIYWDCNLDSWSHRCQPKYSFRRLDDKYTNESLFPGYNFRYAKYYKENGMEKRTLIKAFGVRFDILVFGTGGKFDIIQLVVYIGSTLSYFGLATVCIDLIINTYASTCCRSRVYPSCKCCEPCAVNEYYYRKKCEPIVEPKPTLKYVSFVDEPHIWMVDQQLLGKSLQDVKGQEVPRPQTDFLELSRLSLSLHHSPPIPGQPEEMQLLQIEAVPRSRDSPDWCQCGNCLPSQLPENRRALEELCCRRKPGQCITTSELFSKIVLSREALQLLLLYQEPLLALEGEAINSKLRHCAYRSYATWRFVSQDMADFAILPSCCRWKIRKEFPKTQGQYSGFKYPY
How it was run: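 HEK293 cells stably expressing rat P2X7 (5,000/well, plated 24 h before) loaded with Fluo-4; compounds preincubated 10 min at room temperature, then Ca2+ rise after 10 microM BzATP (final) read on FDSS (480/540 nm). IC50 from 7-point curves, duplicate wells.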

Sequence of human P2X7 (Q99572 whole entry): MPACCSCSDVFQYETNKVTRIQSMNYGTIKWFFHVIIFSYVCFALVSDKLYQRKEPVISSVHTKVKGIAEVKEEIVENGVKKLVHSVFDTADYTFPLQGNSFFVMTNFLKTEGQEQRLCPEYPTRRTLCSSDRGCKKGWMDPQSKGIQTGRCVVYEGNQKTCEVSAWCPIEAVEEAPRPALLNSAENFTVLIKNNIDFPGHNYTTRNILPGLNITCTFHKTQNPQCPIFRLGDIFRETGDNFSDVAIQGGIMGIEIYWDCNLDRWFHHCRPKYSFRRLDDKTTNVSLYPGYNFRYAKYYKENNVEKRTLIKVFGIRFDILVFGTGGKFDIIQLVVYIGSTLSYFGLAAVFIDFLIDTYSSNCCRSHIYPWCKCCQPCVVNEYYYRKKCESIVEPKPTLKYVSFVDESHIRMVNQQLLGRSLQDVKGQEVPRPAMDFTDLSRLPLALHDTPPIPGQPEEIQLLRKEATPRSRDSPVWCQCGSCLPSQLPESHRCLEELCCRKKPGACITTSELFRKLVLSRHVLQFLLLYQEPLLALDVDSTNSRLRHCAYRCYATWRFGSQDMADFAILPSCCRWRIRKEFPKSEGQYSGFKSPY

IC50 [1] [nM] | IC50 [2] [nM] | SMILES
< 50 | < 1000 | O=C(NCc1ccc(Br)cc1Cl)[C@@]1(F)CC[C@@H](O)c2ncccc21 [Example 153, (5R,8R)-N-(4-bromo-2-chlorobenzyl)-5-fluoro-8-hydroxy-5,6,7,8-tetrahydroquinoline-5-carboxamide]
< 50 | < 1000 | O=C(NCc1ccc(Cl)cc1C(F)(F)F)[C@]1(F)CC[C@H](O)c2ncccc21 [Example 157, (5S,8S)-N-(4-chloro-2-(trifiuoromethyl)benzyl)-5-fluoro-8-hydroxy-5,8,7,8-tetrahydroquinoline-5-carboxamide]
< 50 | < 1000 | O=C(NCc1cccc(Cl)c1Cl)[C@@]1(F)CC[C@@H](O)c2ncccc21 [Example 158, (5R,8R)-N-(2,3-dichlorobenzyl)-5-fluoro-8-hydroxy-5,6,7,8-tetrahydroquinoline-5-carboxamide]
< 50 | < 1000 | O=C(NCc1c(Cl)ccc(Cl)c1Cl)[C@]1(F)CC[C@H](O)c2ncccc21 [Example 165, (5S,8S)-5-fluoro-8-hydroxy-N-(2,3,6-trichlorobenzyl)-5,6,7,8-tetrahydroquinoline-5-carboxamide]
< 50 | < 1000 | Cc1ccc(CNC(=O)[C@]2(F)CC[C@H](O)c3ncccc32)c(Cl)c1 [Example 167, (5S,8S)-N-(2-chloro-4-methylbenzyl)-5-fluoro-8-hydroxy-5,6,7,8-tetrahydroquinoline-5-carboxamide]
< 50 | < 1000 | O=C(NCc1c(F)ccc(F)c1Cl)[C@]1(F)CC[C@H](O)c2ncccc21 [Example 170, (5S,8S)-N-(2-chloro-3,6-difluorobenzyl)-5-fluoro-8-hydroxy-5,6,7,8-tetrahydroquinoline-5-carboxamide]
< 50 | < 1000 | O=C(NCc1c(F)cc(F)cc1Cl)[C@]1(F)CC[C@H](O)c2ncccc21 [Example 176, (5S,8S)-N-(2-chloro-4,6-difluorobenzyl)-5-fluoro-8-hydroxy-5,6,7,8-tetrahydroquinoline-5-carboxamide]
< 50 | < 1000 | O=C(NCc1cccc(F)c1C(F)(F)F)[C@]1(F)CC[C@H](O)c2ncccc21 [Example 178, (58,8S)-5-fluoro-N-(3-fluoro-2-(trifluoromethyl)benzyl)-8-hydroxy-5,6,7,8-tetrahydroquinoline-5-carboxamide]
< 50 | < 1000 | O=C(NCc1ccc(Br)cc1F)[C@]1(F)CC[C@H](O)c2ncccc21 [Example 182, (5S,8S)-N-(4-bromo-2-fluorobenzyl)-5-fluoro-8-hydroxy-5,6,7,8-tetrahydroquinoline-5-carboxamide]
< 50 | < 1000 | O=C(NCc1ccc(Cl)c(F)c1F)[C@]1(F)CC[C@H](O)c2ncccc21 [Example 183, (5S,8S)-N-(4-chloro-2,3-difluorobenzyl)-5-fluoro-8-hydroxy-5,6,7,8-tetrahydroquinoline-5-carboxamide]
< 50 | < 1000 | O=C(NCc1cccc(Cl)c1F)[C@]1(F)CC[C@H](O)c2ncccc21 [Example 190, (5S,8S)-N-(3-chloro-2-fluorobenzyl)-5-fluoro-8-hydroxy-5,6,7,8-tetrahydroquinoline-5-carboxamide]
< 50 | < 1000 | O=C(NCC1(N2CCOCC2)CCCCC1)[C@]1(F)CC[C@H](O)c2ncccc21 [Example 192, (5S,8S)-5-fluoro-8-hydroxy-N-((1-morpholinocyclohexyl)methyl)-5,6,7,8-tetrahydroquinoline-5-carboxamide]
< 50 | < 1000 | O=C(NCc1c(F)ccc(Cl)c1F)[C@]1(F)CC[C@H](O)c2ncccc21 [Example 193, (5S,8S)-N-(3-chloro-2,6-difluorobenzyl)-5-fluoro-8-hydroxy-5,6,7,8-tetrahydroquinoline-5-carboxamide]
50 to 100 | < 1000 | N#Cc1ccc(CNC(=O)[C@]2(F)CC[C@H](O)c3ncccc32)c(F)c1 [Example 201, (5S,8S)-N-(4-cyano-2-fluorobenzyl)-5-fluoro-8-hydroxy-5,6,7,8-tetrahydroquinoline-5-carboxamide]

More lines, now with the values behind:

SMILES | IC50 [1] [nM] | IC50 [2] [nM]
O=C(NCc1c(Cl)cc(Cl)cc1C(F)F)[C@]1(F)CC[C@H](O)c2ncccc21 [Example 149, (5S,8S)-N-(2,4-dichloro-6-(difluoromethyl)benzyl)-5-fluoro-8-hydroxy-5,6,7,8-tetrahydroquinoline-5-carboxamide] | < 50 | < 1000
O=C(NCc1c(Cl)cc(F)cc1CO)[C@]1(F)CC[C@H](O)c2ncccc21 [Example 150, (5S,8S)-N-(2-chloro-4-fluoro-6-(hydroxymethyl)benzyl)-5-fluoro-8-hydroxy-5,6,7,8-tetrahydroquinoline-5-carboxamide] | < 50 | < 1000
O=C(NCc1ccc(Br)cc1Cl)[C@]1(F)CC[C@H](O)c2ncccc21 [Example 154, (5S,8S)-N-(4-bromo-2-chlorobenzyl)-5-fluoro-8-hydroxy-5,6,7,8-tetrahydroquinoline-5-carboxamide] | < 50 | < 1000
O=C(NCc1cccc(Cl)c1Cl)[C@]1(F)CC[C@H](O)c2ncccc21 [Example 159, (5S,8S)-N-(2,3-dichlorobenzyl)-5-fluoro-8-hydroxy-5,6,7,8-tetrahydroquinoline-5-carboxamide] | < 50 | < 1000
O=C(NCc1cc(F)c(F)cc1Cl)[C@]1(F)CC[C@H](O)c2ncccc21 [Example 163, (5S,8S)-N-(2-chloro-4,5-difluorobenzyl)-5-fluoro-8-hydroxy-5,6,7,8-tetrahydroquinoline-5-carboxamide] | < 50 | < 1000
C[C@H](NC(=O)[C@]1(F)CC[C@H](O)c2ncccc21)c1ccc(Cl)c(Cl)c1Cl [Example 168, (5S,8S)-5-fluoro-8-hydroxy-N-((S)-1-(2,3,4-trichlorophenyl)ethyl)-5,6,7,8-tetrahydroquinoline-5-carboxamide] | 101 to 300 | < 1000
O=C(NCc1cccc(F)c1Cl)[C@]1(F)CC[C@H](O)c2ncccc21 [Example 169, (5S,8S)-N-(2-chloro-3-fluorobenzyl)-5-fluoro-8-hydroxy-5,6,7,8-tetrahydroquinoline-5-carboxamide] | < 50 | < 1000
O=C(NCc1c(F)cccc1Cl)[C@]1(F)CC[C@H](O)c2ncccc21 [Example 171, (5S,8S)-N-(2-chloro-6-fluorobenzyl)-5-fluoro-8-hydroxy-5,6,7,8-tetrahydroquinoline-5-carboxamide] | < 50 | < 1000
COc1ccc(CNC(=O)[C@]2(F)CC[C@H](O)c3ncccc32)c(Cl)c1 [Example 172, (5S,8S)-N-(2-chloro-4-methoxybenzyl)-5-fluoro-8-hydroxy-5,6,7,8-tetrahydroquinoline-5-carboxamide] | 101 to 300 | < 1000
O=C(NCc1ncc(Cl)cc1Cl)[C@]1(F)CC[C@H](O)c2ncccc21 [Example 177, (5S,8S)-N-((3,5-dichloropyridin-2-yl)methyl)-5-fluoro-8-hydroxy-5,6,7,8-tetrahydroquinoline-5-carboxamide] | < 50 | < 1000
O=C(NCc1c(Cl)cccc1C(F)(F)F)[C@]1(F)CC[C@H](O)c2ncccc21 [Example 179, (5S,8S)-N-(2-chloro-6-(trifluoromethyl)benzyl)-5-fluoro-8-hydroxy-5,6,7,8-tetrahydroquinoline-5-carboxamide] | < 50 | < 1000
O=C(NCc1c(F)cc(F)cc1F)[C@]1(F)CC[C@H](O)c2ncccc21 [Example 180, (5S,8S)-5-fluoro-8-hydroxy-N-(2,4,6-trifluorobenzyl)-5,6,7,8-tetrahydroquinoline-5-carboxamide] | < 50 | < 1000
O=C(NCc1c(F)cc(Cl)cc1F)[C@]1(F)CC[C@H](O)c2ncccc21 [Example 184, (5S,8S)-N-(4-chloro-2,6-difluorobenzyl)-5-fluoro-8-hydroxy-5,6,7,8-tetrahydroquinoline-5-carboxamide] | < 50 | < 1000
O=C(NCc1ccc(F)c(Cl)c1F)[C@]1(F)CC[C@H](O)c2ncccc21 [Example 185, (5S,8S)-N-(3-chloro-2,4-difluorobenzyl)-5-fluoro-8-hydroxy-5,6,7,8-tetrahydroquinoline-5-carboxamide] | < 50 | < 1000
O=C(N[C@@H]1CCCc2ccccc21)[C@]1(F)CC[C@H](O)c2ncccc21 [Example 189, (5S,8S)-5-fluoro-8-hydroxy-N-((R)-1,2,3,4-tetrahydronaphthalen-1-yl)-5,6,7,8-tetrahydroquinoline 5-carboxamide] | < 50 | < 1000
O=C(NCc1ccccc1Cl)[C@]1(F)CC[C@H](O)c2ncccc21 [Example 195, (5S,8S)-N-(2-chlorobenzyl)-5-fluoro-8-hydroxy-5,6,7,8-tetrahydroquinoline-5-carboxamide] | < 50 | < 1000
O=C(N[C@@H]1CCc2ccccc21)[C@]1(F)CC[C@H](O)c2ncccc21 [Example 196, (5S,8S)-N-((R)-2,3-dihydro-1H-inden-1-yl)-5-fluoro-8-hydroxy-5,6,7,8-tetrahydroquinoline-5-carboxamide] | < 50 | < 1000
O=C(NCc1ccccc1C(F)(F)F)[C@]1(F)CC[C@H](O)c2ncccc21 [Example 199, (5S,8S)-5-fluoro-8-hydroxy-N-(2-(trifluoromethyl)benzyl)-5,6,7,8-tetrahydroquinoline-5-carboxamide] | 50 to 100 | < 1000
